Measured values from US10495571B2 (priority 2014, dated 2019).

Conditions: CMD-3D layer without HSA, PBS buffer, drug cM1 0.00-50 μM, DMSO 0.5%, 5%
Source text: The functional layer AF1 of the second sample region REG2 was otherwise similar to the functional layer AF1 of the first sample region REG1, except that the functional layer AF1 of the first sample region REG1 comprised HSA. […] B0b denotes the input beam impinging on the second sample region REG2, and B1b denotes the reflected beam reflected from the second sample region REG2. ZV2 denotes the sample volume of the second sample region REG2.
Prior to the second test, the functional layer AF1 of the second sample region was formed by a method, which comprised: • attaching a layer of CMD-3D to the metal layer 120 of the sensor, • washing the layer of CMD-3D with an aqueous solution, which comprised 2M NaCl and 10 mM NaOH, • activating the layer of CMD-3D with an activation solution, which comprised EDC and NHS. • treating the layer of CMD-3D with an aqueous solution, which comprised MES (the bulk concentration of MES was 5 mM and pH 5.0), • deactivating the functional layer AF1 by exposing it to an aqueous solution, which comprised ethanolamine (pH 8.0). • washing the functional layer AF1 with an aqueous solution, which comprised 50 mM NaOH. […]
The curve ϕAUX,CH2(t) may be calculated e.g. by using a modified equation (7h), where the parameter C may be determined by using a modified equation (7d), and the parameter D may be determined by using a modified equation (7i). […]

Question: Which “average value of the auxiliary angle ϕAUX,CH2(t) of the second sample region (reference, no HSA)” value does the source give for indomethacine here?
Answer: substantially independent of the bulk concentration cM1
